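Growth conditions: 96-well plates. Treatment: test compound, 48 hours, 5 concentrations. Analysis: linear interpolation between bracketing concentrations; unreached endpoints set to highest concentration. Definition used: TGI = concentration required for complete inhibition of growth.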
How the values were obtained:
Test in all cases: DTP human tumour cell line panel, 48 h
NCI-H226 lung = tested on: NCI-H226 lung
NCI/ADR-RES ovarian = tested on: NCI/ADR-RES ovarian
HOP-62 NSCLC = tested on: HOP-62 NSCLC
SW-620 colon = tested on: SW-620 colon
COLO 205 colon = tested on: COLO 205 colon
SK-MEL-2 melanoma = tested on: SK-MEL-2 melanoma
SNB-19 CNS = tested on: SNB-19 CNS
OVCAR-3 ovarian = tested on: OVCAR-3 ovarian
MCF7 breast = tested on: MCF7 breast
CCRF-CEM leukemia = tested on: CCRF-CEM leukemia
SNB-75 CNS = tested on: SNB-75 CNS
786-0 renal = tested on: 786-0 renal
NCI-H23 lung = tested on: NCI-H23 lung
DU-145 prostate = tested on: DU-145 prostate
OVCAR-5 ovarian = tested on: OVCAR-5 ovarian
HOP-92 NSCLC = tested on: HOP-92 NSCLC
OVCAR-4 ovarian = tested on: OVCAR-4 ovarian
OVCAR-8 ovarian = tested on: OVCAR-8 ovarian
HS 578T breast = tested on: HS 578T breast
KM12 colon = tested on: KM12 colon
SN12C renal = tested on: SN12C renal
EKVX NSCLC = tested on: EKVX NSCLC
NCI-H522 lung = tested on: NCI-H522 lung
MDA-MB-231 breast = tested on: MDA-MB-231 breast
UACC-62 melanoma = tested on: UACC-62 melanoma
UO-31 renal = tested on: UO-31 renal
MALME-3M melanoma = tested on: MALME-3M melanoma
LOX IMVI melanoma = tested on: LOX IMVI melanoma
BT-549 breast = tested on: BT-549 breast
RPMI-8226 leukemia = tested on: RPMI-8226 leukemia
A498 renal = tested on: A498 renal
IGROV1 ovarian = tested on: IGROV1 ovarian
T-47D breast = tested on: T-47D breast
K-562 leukemia = tested on: K-562 leukemia
HL-60(TB) leukemia = tested on: HL-60(TB) leukemia
SK-MEL-5 melanoma = tested on: SK-MEL-5 melanoma
CAKI-1 renal = tested on: CAKI-1 renal
TK-10 renal = tested on: TK-10 renal
ACHN renal = tested on: ACHN renal
HT29 colon = tested on: HT29 colon
HCT-15 colon = tested on: HCT-15 colon
A549 NSCLC = tested on: A549 NSCLC
RXF 393 renal = tested on: RXF 393 renal
HCT-116 colon = tested on: HCT-116 colon
SF-268 CNS = tested on: SF-268 CNS
SK-MEL-28 melanoma = tested on: SK-MEL-28 melanoma
MOLT-4 leukemia = tested on: MOLT-4 leukemia
U251 CNS = tested on: U251 CNS
PC-3 prostate = tested on: PC-3 prostate
SK-OV-3 ovarian = tested on: SK-OV-3 ovarian
MDA-MB-435 = tested on: MDA-MB-435
M14 melanoma = tested on: M14 melanoma
SF-295 CNS = tested on: SF-295 CNS
MDA-N = tested on: MDA-N
HCC-2998 colon = tested on: HCC-2998 colon
UACC-257 melanoma = tested on: UACC-257 melanoma
SR leukemia = tested on: SR leukemia
NCI-H460 lung = tested on: NCI-H460 lung
SF-539 CNS = tested on: SF-539 CNS

Clc1ccc2c(NCCNC3CCCCC3)ccnc2c1
TGI (NCI-H226 lung): 24.8 µM
TGI (NCI/ADR-RES ovarian): 33.7 µM
TGI (HOP-62 NSCLC): 27.4 µM
TGI (SW-620 colon): 29.7 µM
TGI (COLO 205 colon): 2.79 µM
TGI (SK-MEL-2 melanoma): 11 µM
TGI (SNB-19 CNS): 35.5 µM
TGI (OVCAR-3 ovarian): 37.5 µM
TGI (MCF7 breast): 15.9 µM
TGI (CCRF-CEM leukemia): 9.77 µM
TGI (SNB-75 CNS): 23.4 µM
TGI (786-0 renal): 20.9 µM
TGI (NCI-H23 lung): 32.2 µM
TGI (DU-145 prostate): 36.7 µM
TGI (OVCAR-5 ovarian): 30.5 µM
TGI (HOP-92 NSCLC): 22.5 µM
TGI (OVCAR-4 ovarian): 46.5 µM
TGI (OVCAR-8 ovarian): 31.9 µM
TGI (HS 578T breast): 8.15 µM
TGI (KM12 colon): 31 µM
TGI (SN12C renal): 33.8 µM
TGI (EKVX NSCLC): 15.7 µM
TGI (NCI-H522 lung): 7.46 µM
TGI (MDA-MB-231 breast): 23.8 µM
TGI (UACC-62 melanoma): 15.8 µM
TGI (UO-31 renal): 11.2 µM
TGI (MALME-3M melanoma): 3.64 µM
TGI (LOX IMVI melanoma): 8.53 µM
TGI (BT-549 breast): 23.3 µM
TGI (RPMI-8226 leukemia): 17 µM
TGI (A498 renal): 5.85 µM
TGI (IGROV1 ovarian): 27.8 µM
TGI (T-47D breast): 64.6 µM
TGI (K-562 leukemia): 6.13 µM
TGI (HL-60(TB) leukemia): 6.63 µM
TGI (SK-MEL-5 melanoma): 3.16 µM
TGI (CAKI-1 renal): 24.3 µM
TGI (TK-10 renal): 7.15 µM
TGI (ACHN renal): 25.3 µM
TGI (HT29 colon): 14.8 µM
TGI (HCT-15 colon): 20.4 µM
TGI (A549 NSCLC): 31.2 µM
TGI (RXF 393 renal): 27.1 µM
TGI (HCT-116 colon): 21.1 µM
TGI (SF-268 CNS): 22.8 µM
TGI (SK-MEL-28 melanoma): 3.62 µM
TGI (MOLT-4 leukemia): 18.6 µM
TGI (U251 CNS): 17.7 µM
TGI (PC-3 prostate): 33.9 µM
TGI (SK-OV-3 ovarian): 37.8 µM
TGI (MDA-MB-435): 9.92 µM
TGI (M14 melanoma): 3.41 µM
TGI (SF-295 CNS): 10.3 µM
TGI (MDA-N): 5.42 µM

COc1c2c(cc3occ(-c4ccc(CC=C(C)C)cc4)c(=O)c13)OC(C)(C)C=C2
TGI (NCI-H226 lung): > 100 µM
TGI (NCI/ADR-RES ovarian): > 100 µM
TGI (HOP-62 NSCLC): > 100 µM
TGI (SW-620 colon): > 100 µM
TGI (COLO 205 colon): > 100 µM
TGI (SK-MEL-2 melanoma): 62.7 µM
TGI (SNB-19 CNS): > 100 µM
TGI (OVCAR-3 ovarian): > 100 µM
TGI (MCF7 breast): > 100 µM
TGI (CCRF-CEM leukemia): > 100 µM
TGI (SNB-75 CNS): > 100 µM
TGI (HCC-2998 colon): > 100 µM
TGI (786-0 renal): > 100 µM
TGI (NCI-H23 lung): > 100 µM
TGI (DU-145 prostate): > 100 µM
TGI (OVCAR-5 ovarian): > 100 µM
TGI (OVCAR-8 ovarian): > 100 µM
TGI (HS 578T breast): > 100 µM
TGI (KM12 colon): > 100 µM
TGI (SN12C renal): > 100 µM
TGI (EKVX NSCLC): > 100 µM
TGI (NCI-H522 lung): > 100 µM
TGI (MDA-MB-231 breast): > 100 µM
TGI (UACC-62 melanoma): > 100 µM
TGI (UO-31 renal): > 100 µM
TGI (MALME-3M melanoma): > 100 µM
TGI (LOX IMVI melanoma): > 100 µM
TGI (BT-549 breast): > 100 µM
TGI (RPMI-8226 leukemia): 50.3 µM
TGI (IGROV1 ovarian): > 100 µM
TGI (T-47D breast): > 100 µM
TGI (K-562 leukemia): > 100 µM
TGI (HL-60(TB) leukemia): 46.4 µM
TGI (SK-MEL-5 melanoma): 48.9 µM
TGI (CAKI-1 renal): > 100 µM
TGI (TK-10 renal): > 100 µM
TGI (UACC-257 melanoma): > 100 µM
TGI (ACHN renal): > 100 µM
TGI (HT29 colon): > 100 µM
TGI (SR leukemia): > 100 µM
TGI (HCT-15 colon): > 100 µM
TGI (A549 NSCLC): > 100 µM
TGI (RXF 393 renal): > 100 µM
TGI (HCT-116 colon): > 100 µM
TGI (SF-268 CNS): > 100 µM
TGI (SK-MEL-28 melanoma): > 100 µM
TGI (MOLT-4 leukemia): 52.1 µM
TGI (U251 CNS): > 100 µM
TGI (PC-3 prostate): > 100 µM
TGI (SK-OV-3 ovarian): > 100 µM
TGI (MDA-MB-435): > 100 µM
TGI (M14 melanoma): > 100 µM
TGI (SF-295 CNS): > 100 µM
TGI (MDA-N): > 100 µM

CC(=O)OC1CC(OC2C(O)CC(OC3C(O)CC(OC4CCC5(C)C(CCC6C5CCC5(C)C(C7=CC(=O)OC7)C(O)CC65O)C4)OC3C)OC2C)OC(C)C1OC1OC(CO)C(O)C(O)C1O (centres undefined)
TGI (NCI-H226 lung): 2.66 µM
TGI (NCI/ADR-RES ovarian): 0.755 µM
TGI (HOP-62 NSCLC): 0.483 µM
TGI (SW-620 colon): 1.45 µM
TGI (COLO 205 colon): 2.13 µM
TGI (SK-MEL-2 melanoma): 2.16 µM
TGI (SNB-19 CNS): 2.19 µM
TGI (OVCAR-3 ovarian): 1.24 µM
TGI (MCF7 breast): 15.8 µM
TGI (CCRF-CEM leukemia): > 100 µM
TGI (SNB-75 CNS): 2.97 µM
TGI (HCC-2998 colon): 4.09 µM
TGI (786-0 renal): 0.943 µM
TGI (NCI-H23 lung): 0.424 µM
TGI (DU-145 prostate): 0.684 µM
TGI (OVCAR-5 ovarian): 1.72 µM
TGI (HOP-92 NSCLC): 3.17 µM
TGI (OVCAR-8 ovarian): 1.56 µM
TGI (HS 578T breast): > 100 µM
TGI (KM12 colon): 1.94 µM
TGI (SN12C renal): 1.32 µM
TGI (EKVX NSCLC): 0.803 µM
TGI (NCI-H522 lung): 1.2 µM
TGI (MDA-MB-231 breast): 6.42 µM
TGI (UACC-62 melanoma): 1.98 µM
TGI (UO-31 renal): 1.46 µM
TGI (MALME-3M melanoma): 1.85 µM
TGI (LOX IMVI melanoma): 1.14 µM
TGI (BT-549 breast): 1.26 µM
TGI (RPMI-8226 leukemia): 5.7 µM
TGI (A498 renal): 2.13 µM
TGI (NCI-H460 lung): 0.491 µM
TGI (IGROV1 ovarian): 3.58 µM
TGI (T-47D breast): 3.32 µM
TGI (K-562 leukemia): > 100 µM
TGI (HL-60(TB) leukemia): 0.577 µM
TGI (SK-MEL-5 melanoma): 1.06 µM
TGI (CAKI-1 renal): 0.461 µM
TGI (TK-10 renal): 2.14 µM
TGI (UACC-257 melanoma): 1.88 µM
TGI (ACHN renal): 0.942 µM
TGI (HT29 colon): 1.76 µM
TGI (HCT-15 colon): 1.16 µM
TGI (A549 NSCLC): 0.244 µM
TGI (HCT-116 colon): 0.91 µM
TGI (SF-268 CNS): 2.48 µM
TGI (SK-MEL-28 melanoma): 3.61 µM
TGI (MOLT-4 leukemia): > 100 µM
TGI (U251 CNS): 1.45 µM
TGI (PC-3 prostate): 1.55 µM
TGI (SK-OV-3 ovarian): 2.1 µM
TGI (MDA-MB-435): 2.08 µM
TGI (SF-539 CNS): 0.421 µM
TGI (M14 melanoma): 2.31 µM
TGI (SF-295 CNS): 1.43 µM
TGI (MDA-N): 1.77 µM
